Legend:
Type in all cases: cell-based
ERK activation (p-ERK) = assay: p-ERK immunoblotting after CXCL8 stimulation; details: 2.5 μM compound 1 h then 100 ng/ml CXCL8 for 15 min; read-out: E. p-ERK inhibition - TIME
Method: Cells were lysed in buffer containing 3% SDS, 10% glycerol and 0.825 mM Na2HPO4. 30 to 50 μg of proteins separated on 10% SDS-PAGE, transferred onto a PVDF membrane and then exposed to the appropriate antibodies. Proteins were visualized with the ECL system using horseradish peroxidase-conjugated anti-rabbit or anti-mouse antibodies.
(§1) All compounds were evaluated in different experiments. Results are represented as the mean of three independent experiments. A. ARPE-19 cells were treated with dose response of compound for 48 h. Values are reported as IC50 measured with the XTT assay. B and C. ARPE-19 cells were treated with 5 μM (B) or 1 μM (C) compound then with 200 μM H2O2 for 2 h. ROS were analyzed by cytometry. […] As illustrated in FIG. 1A. D. ARPE-19 cells were treated with 2.5 μM compound for 48 h and the level of CXCL1 mRNA was evaluated by qPCR. […] As illustrated in FIG. 1B. E. TIME cells were pre-treated with 2.5 μM compound for 1 h then stimulated with 100 ng/ml CXCL8 for 15 min p-ERK levels were analyzed by immunoblotting. HSP90 served as loading control. […] As illustrated in FIG. 1C.

ROS = ROS labeling by cytometry after H2O2; details: Homo sapiens, ARPE-19; for inhibition at 1 µM: 1 μM compound then 200 μM H2O2 for 2 h, read-out: C. ROS inhibition 1 μM - ARPE-19 cells; for inhibition at 5 µM: 5 μM compound then 200 μM H2O2 for 2 h, read-out: B. ROS inhibition 5 μM - ARPE-19 cells
Method: ARPE-19 cells were treated with MCK349 30 minutes then with 200 μM H2O2 for 2 h. 10 μM DCF-DA (2′,7′-Dichlorofluorescein diacetate) were added on cell media for 30 min. Cells were rinsed then detached (trypsin) and resuspended in PBS 0.5% BSA and 2 mM EDTA. The cells are analyzed by cytometry (ROS labeled with DCFDA-FITC).
as §1

ARPE-19 cells = assay: Cell viability (XTT assay); details: Homo sapiens, 48 h, read-out: A. Safety IC50 on ARPE-19 cells
Method: ARPE-19 cells were incubated in a 96-well plate with different effectors for 48 hours. Fifty microliters of sodium 3′-[1-phenylaminocarbonyl)-3,4-tetrazolium]-bis(4-methoxy-6-nitro) benzene sulfonic acid hydrate (XTT) reagent was added to each well. The test is based on the cleavage of the yellow tetrazolium salt XTT to form an orange formazan dye by metabolically active cells. This bio-reduction occurs in viable cells only and is associated with NAD(P)H production through glycolysis. Therefore, the amount of formazan dye measured at 490 nm, correlates directly with the number of metabolically active cells reflecting cell proliferation, viability, and cytotoxicity. Each assay was performed in quadruplicate.
as §1

SMILES | inhibition at 2.5 µM (ERK activation (p-ERK)) | inhibition at 1 µM (ROS) | inhibition at 5 µM (ROS) | IC50 (ARPE-19 cells)
Cc1ccc(Cn2nc(Nc3ccccn3)nc2N)cc1 [MCK279, 1-(4-methylbenzyl)-N^3-(pyridin-2-yl)-1H-1,2,4-triazole-3,5-diamine] | ≥ 50% | < 50% | < 50% | > 25 µM
Nc1nc(Nc2ccccn2)nn1Cc1ccc([N+](=O)[O-])cc1 [MCK290, 1-(4-nitrobenzyl)-N^3-(pyridin-2-yl)-1H-1,2,4-triazole-3,5-diamine] | ≥ 50% | ≥ 50% | ≥ 50% | > 25 µM
Nc1nc(Nc2ccccc2)nn1CCc1ccccc1 [MCK301, 1-phenethyl-N^3-phenyl-1H-1,2,4-triazole-3,5-diamine] | < 50% | < 50% | < 50% | > 25 µM
Nc1nc(Nc2ccccn2)nn1Cc1ccccc1 [MCK253, 1-benzyl-N^3-(pyridin-2-yl)-1H-1,2,4-triazole-3,5-diamine] | < 50% | < 50% | < 50% | > 25 µM
COc1cccc(Cn2nc(N)nc2Nc2ccccc2)c1 [MCK260, 1-(3-methoxybenzyl)-N^5-phenyl-1H-1,2,4-triazole-3,5-diamine] | ≥ 50% | ≥ 50% | ≥ 50% | > 25 µM
COc1cccc(Cn2nc(Nc3ccccc3)nc2N)c1 [MCK261, 1-(3-methoxybenzyl)-N^3-phenyl-1H-1,2,4-triazole-3,5-diamine] | ≥ 50% | < 50% | ≥ 50% | > 25 µM
Nc1nc(Nc2cccnc2)nn1Cc1cccc(Br)c1 [MCK351, 1-(3-bromobenzyl)-N^3-(pyridin-3-yl)-1H-1,2,4-triazole-3,5-diamine] | ≥ 50% | < 50% | < 50% | > 25 µM
Nc1nc(Nc2ccccc2)n(Cc2ccccc2)n1 [MCK248, 1-benzyl-N^5-phenyl-1H-1,2,4-triazole-3,5-diamine] | < 50% | < 50% | ≥ 50% | > 25 µM
Nc1nc(Nc2ccccc2)nn1Cc1cccc([N+](=O)[O-])c1 [MCK275] | < 50% | ≥ 50% | ≥ 50% | > 25 µM
COC(=O)c1ccc(Nc2nc(N)nn2Cc2cccc(Br)c2)cc1 [MCK347, methyl-4-((3-amino-1-(3-bromobenzyl)-1H-1,2,4-triazol-5-yl)amino)benzoate] | ≥ 50% | < 50% | < 50% | > 25 µM
Cc1ccc(Nc2nc(N)nn2Cc2cccc(Br)c2)cc1 [MCK341, 1-(3-bromobenzyl)-N^5-(4-methylphenyl)-1H-1,2,4-triazole-3,5-diamine] | < 50% | ≥ 50% | ≥ 50% | > 25 µM
Nc1nc(Nc2ccccc2)nn1Cc1cccc(Br)c1 [MCK264, 1-(3-bromobenzyl)-N^3-phenyl-1H-1,2,4-triazole-3,5-diamine] | ≥ 50% | ≥ 50% | ≥ 50% | > 25 µM
COc1cc(Cn2nc(Nc3ccccc3)nc2N)cc(OC)c1OC [MCK298, N^3-phenyl-1-(3,4,5-trimethoxybenzyl)-1H-1,2,4-triazole-3,5-diamine] | ≥ 50% | < 50% | < 50% | > 25 µM
COc1ccc(Nc2nc(N)n(Cc3cccc(Br)c3)n2)cc1 [MCK340, 1-(3-bromobenzyl)-N^3-(4-methoxyphenyl)-1H-1,2,4-triazole-3,5-diamine] | < 50% | < 50% | < 50% | > 25 µM
Nc1nc(Nc2ccccc2)nn1Cc1ccc(Cl)cc1 [MCK272, 1-(4-chlorobenzyl)-N^3-phenyl-1H-1,2,4-triazole-3,5-diamine] | ≥ 50% | < 50% | ≥ 50% | > 25 µM
Nc1nc(Nc2cccnc2)nn1Cc1ccccc1 [MCK254, 1-benzyl-N^3-(pyridin-3-yl)-1H-1,2,4-triazole-3,5-diamine] | < 50% | < 50% | < 50% | > 25 µM
COC(=O)c1ccc(Nc2nc(N)n(Cc3cccc(Br)c3)n2)cc1 [MCK348, methyl-4-((5-amino-1-(3-bromobenzyl)-1H-1,2,4-triazol-3-yl)amino)benzoate] | ≥ 50% | ≥ 50% | ≥ 50% | > 25 µM
N#Cc1ccc(Cn2nc(Nc3ccccn3)nc2N)cc1 [MCK281, 4-((5-amino-3-(pyridin-2-ylamino)-1H-1,2,4-triazol-1-yl)methyl)benzonitrile] | ≥ 50% | < 50% | < 50% | > 25 µM
Nc1nc(Nc2ccccc2)n(Cc2cccc(Br)c2)n1 [MCK339, 1-(3-bromobenzyl)-N^5-phenyl-1H-1,2,4-triazole-3,5-diamine] | < 50% | < 50% | ≥ 50% | > 25 µM
Nc1nc(Nc2ccccc2)nn1Cc1cccc(C(F)(F)F)c1 [MCK273, N^3-phenyl-1-(3-(trifluoromethyl)benzyl)-1H-1,2,4-triazole-3,5-diamine] | ≥ 50% | ≥ 50% | ≥ 50% | > 25 µM
Nc1nc(Nc2ccccn2)nn1Cc1ccc(Cl)cc1 [MCK280, 1-(4-chlorobenzyl)-N^3-(pyridin-2-yl)-1H-1,2,4-triazole-3,5-diamine] | ≥ 50% | < 50% | < 50% | > 25 µM
Nc1nc(Nc2ccccc2)nn1Cc1ccccc1 [MCK249, 1-benzyl-N^3-phenyl-1H-1,2,4-triazole-3,5-diamine] | < 50% | < 50% | ≥ 50% | > 25 µM
Nc1nc(Nc2ccccn2)nn1CC(=O)c1cccc([N+](=O)[O-])c1 [MCK295, 2-(5-amino-3-(pyridin-2-ylamino)-1H-1,2,4-triazol-1-yl)-1-(3-nitrophenyl)ethan-1-one] | ≥ 50% | < 50% | < 50% | > 25 µM
Cc1ccccc1Cn1nc(Nc2ccccn2)nc1N [MCK269, 1-(2-methylbenzyl)-N^3-(pyridin-2-yl)-1H-1,2,4-triazole-3,5-diamine] | ≥ 50% | ≥ 50% | ≥ 50% | > 25 µM
Nc1nc(Nc2ccc(Br)cc2)n(Cc2cccc(Br)c2)n1 [MCK345, 1-(3-bromobenzyl)-N^5-(4-bromophenyl)-1H-1,2,4-triazole-3,5-diamine] | ≥ 50% | ≥ 50% | ≥ 50% | > 25 µM
Nc1nc(Nc2ccccc2)nn1Cc1c(Cl)cccc1Cl [MCK268, 1-(2,6-dichlorobenzyl)-N^3-phenyl-1H-1,2,4-triazole-3,5-diamine] | ≥ 50% | < 50% | ≥ 50% | > 25 µM
Nc1nc(Nc2ccccc2)nn1Cc1cc(F)cc(F)c1 [MCK274, 1-(3,5-difluorobenzyl)-N^3-phenyl-1H-1,2,4-triazole-3,5-diamine] | < 50% | ≥ 50% | ≥ 50% | > 25 µM
Nc1nc(Nc2ccccc2)nn1Cc1ccc([N+](=O)[O-])cc1 [MCK288] | < 50% | ≥ 50% | ≥ 50% | > 25 µM
Nc1nc(Nc2ccccn2)nn1Cc1cc(F)cc(F)c1 [MCK283, 1-(3,5-difluorobenzyl)-N^3-(pyridin-2-yl)-1H-1,2,4-triazole-3,5-diamine] | ≥ 50% | < 50% | < 50% | > 25 µM
CC(C)c1ccc(Cn2nc(N)nc2Nc2ccccc2)cc1 [MCK262, 1-(4-isopropylbenzyl)-N^5-phenyl-1H-1,2,4-triazole-3,5-diamine] | ≥ 50% | ≥ 50% | ≥ 50% | > 25 µM
